From patent US20050197364A1, “Amide compounds as ion channel ligands and uses thereof” (priority 2003, published 2005) come the findings set out here.

One data set relates to thermal hyperalgesia. Put plainly: Thermal hyperalgesia (carrageenan, latency of paw withdrawal). The conditions noted are these: rats, 30 mg/kg, two hours after dosing, FIG. 6. It counts as in vivo, rat. As to the method: Sprague-Dawley male rats obtained from Charles River, San Diego, Calif. were purchased at 150-175 g, and held for at least one week before testing. Pain was induced by injecting 100 μl of 2% carrageenan in 0.9% saline sub-Q into the right ventral hindpaw while the animals were under isofluorane anesthesia. Animals were then dosed one hour after with different concentrations of Compound 18 (3, 10, and 30 mg/kg). Two hours later, after acclimatizing in testing chambers for 20-30 minutes, animals were tested on both hindpaws for latency of paw withdrawal using a thermal testing apparatus. 2-3 trials were conducted with 10 minutes between trials. […] The figure depicts the time in seconds until animals withdraw from thermal stimulation at baseline and two hours after administration of delivery vehicle, control compound, and three concentrations of Compound 18.
In general terms: In the carrageenan paw model, swelling and tenderness develop within hours.

Data set [1] is described as follows: Partition coefficient Log(D), 1-octanol / pH 7.4 buffer. In kind it is physicochemical. The following applies: pH 7.4, 1-octanol/buffer. As to the method: The partition coefficient, Log(D), between water-saturated 1octanol and pH 7.4 buffer was determined for Compound 18. The pH 7.4 buffer was prepared by adjusting the pH of a 0.07 M solution of NaH2PO4 to pH 7.4 with 10 N NaOH. 15 μL of a 10 mM stock solution of test article were pipetted in duplicate, into test tubes containing 750 μL each of 1-octanol and pH 7.4 buffer. Then 3 μL of 50 mM testosterone was also added to each tube. Then the tubes were rotated for about one hour using a benchtop rotator. Following the rotation, the tubes sat on the bench top for about 1 hour to allow the layers to separate.
Thereafter, 400 μL of the octanol (top) layer was removed and placed into a test tube. Next 400 μL of the aqueous (bottom) layer was removed and placed into a test tube. […]
A standard curve of test article and testosterone was prepared using 50% methanol at the following concentrations: 2, 0.6, 0.2, 0.06, 0.02, 0.006, and 0.002 μM. The samples were analyzed by LC/MS monitoring both test article and testosterone. Log (D) was calculated for each duplicate sample by taking the calculated concentration of the least diluted sample for each phase that fell within the standard curve using the following equation: Log(D)=Log10(Calc. Conc. in Organic Phase/Calc. Conc. in Aqueous Phase).

The nature of data set [2]: Pharmacokinetic profile after intravenous and oral administration. It counts as in vivo. The conditions noted are these: male, Sprague-Dawley, rat, plasma, rats, IV 1 mg/kg and oral 5 mg/kg. How it is done: The pharmacokinetic profile of Compound 18 was evaluated following intravenous and oral administration in rats. Sprague-Dawley male rats obtained from Charles River, San Diego, Calif. were acclimated for 24 hours. Compound 18 was formulated at a concentration of 0.5 mg/mL for IV administration at a 1 mg/kg dose and 1 mg/mL for oral administration at a 5 mg/kg dose. All animals were weighed before dosing. The body weight was used to calculate the actual dose for each animal. The intravenous dose was administered through the jugular vein catheter in less than 1 minute. The oral dose volume was 1.5 ml for all PO rats administered through oral […]. […] For PO dosing, blood samples were collected using a pre-heparinized syringe via the carotid artery catheter before dosing and at t=5, 15, 30, 60, 120, 180, 360, and 480 minutes post dosing. 250 uL of blood was obtained at each time point from each animal. Equal volumes of 0.9% normal saline were replaced to prevent dehydration. The whole blood samples were maintained on ice until centrifugation. Blood samples were centrifuged at 14,000 rpm for 10 minutes at 4° C., and the upper plasma layer was transferred into a clean vial and store at −80° C. The plasma was analyzed.

The next data set concerns VR1 receptor. Put plainly: High throughput calcium imaging assay (Fura2, Flex Station) of VR1 antagonists, pH 5.1 stimulus. It counts as cell-based. The conditions noted are these: 1 uM compound; inhibition of calcium ion influx induced by capsaicin stimulation.
Another data set addresses CYP3A4 (Homo sapiens, UniProt P08684). Kind of data set: Cytochrome p450 inhibition assessment, CYP3A4. It counts as in vitro ADME. The following applies: concentration range tested, upper 100 μM. How it is done:
The ability of test compounds to inhibit five major human cytochrome p450 isozymes was evaluated. Cytochrome p450 inhibition assays were performed on 96-well microtiter assay plates according to the protocols described in Gentest P450 inhibition instruction manuals. The assays were performed in duplicate at 8 concentrations with the upper concentration of 100 μM followed by a 1:3 serial dilution. Reactions were initiated by the addition of 100 μL of enzyme/substrate mix to 100 μL of cofactor/serial dilution mix, and terminated by addition of 75 μL of a 4:1 acentonitrile: 0.5 M Tris base solution or by 2N NaOH for CYP3A4/DBF. Fluorescence was measured using a fluorescence plate reader (FLUOstar model 403, BMG Lab Technologies, Durham, N.C.). For reactions with inhibition greater than 50%, IC50 values were determined by fitting the data to the Hill equation using software GraphPad Prism (Version 4.02, GraphPad Software, San Diego, Calif.).

Data set [3] can be described thus: Plasma protein binding by equilibrium dialysis, human plasma. In kind it is in vitro ADME. The following applies: human plasma in sodium citrate, pH 7.4, 37° C., read-out: human plasma protein binding (% Bound). How it is done:
Membranes from Harvard/Amika with a molecular weight cutoff of 5,000 were rinsed with dH2O then placed in pH 7.4 PBS supplied by Gibco. The membranes were allowed to soak for 1 hour. A stock of the test article was pooled with Warfarin, Atropine at 2 mM in DMSO. The test article was then dosed into human plasma in sodium citrate, Rat Plasma, and Mouse Plasma to a final 10 μM concentration (0.5% DMSO v/v). The pre-soaked membranes were then placed into dialysis chambers. 500 μL of PBS was added to one side of the chamber, and 500 μL of the Matrix containing the test article was added to the other side of the chamber.
The chambers were then placed into an enclosed, heated rocker, which was pre-warmed to 37° C. and allowed to reach equilibrium for at least 22 hours. After 22 hours both sides were sampled. 100 μL of the donor side was added to 500 μL of PBS. 100 μL of the PBS side was added to 20 μL of fresh matrix. Samples then were crashed with 1:1 Acetonitrile and centrifuged at 10,000 RPM for 10 minutes. […]
Standards were prepared in a 1:5 plasma:PBS mixture at 5, 1.5, 0.5, 0.15, 0.05, 0.015 and 0.005 μM concentrations. […] Protein binding values were calculated as follows: % Bound=[(Concentration in Donor−Concentration in Receiver)/(Concentration in Donor)]×100. % Recovery=[(Concentration in donor+Concentration in Receiver)]/(Concentration in Normal Initial)]×100
For orientation: Equilibrium dialysis compares concentrations on both sides of a semipermeable membrane.

Each structure is given as a SMILES string.

Sequence of CYP3A4 (P08684 whole entry): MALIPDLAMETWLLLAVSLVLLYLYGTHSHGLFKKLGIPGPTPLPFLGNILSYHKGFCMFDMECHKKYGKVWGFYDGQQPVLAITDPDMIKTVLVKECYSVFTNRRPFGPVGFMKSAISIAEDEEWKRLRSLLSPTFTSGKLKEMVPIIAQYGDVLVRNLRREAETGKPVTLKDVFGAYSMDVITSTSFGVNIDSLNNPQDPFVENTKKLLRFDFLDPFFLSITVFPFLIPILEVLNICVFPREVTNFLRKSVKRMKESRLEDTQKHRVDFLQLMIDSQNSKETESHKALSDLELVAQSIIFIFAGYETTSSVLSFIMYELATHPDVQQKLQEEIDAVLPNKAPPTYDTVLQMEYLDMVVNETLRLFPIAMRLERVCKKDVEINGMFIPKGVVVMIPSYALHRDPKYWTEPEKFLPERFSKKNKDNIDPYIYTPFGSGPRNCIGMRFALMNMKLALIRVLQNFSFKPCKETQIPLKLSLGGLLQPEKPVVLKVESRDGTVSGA

Consider `O=C(Nc1ccc(C(F)(F)F)cc1)c1ccc(-c2ncccc2Cl)cc1` [Compound 18, 4-(3-Chloropyridin-2-yl)-N-(4-trifluoromethyl-phenyl)benzamide], for which the “latency of paw withdrawal (reversal of thermal hyperalgesia)” value in the data set with thermal hyperalgesia is recorded as “significantly increased”. Moreover, the “Log (D)” value in data set [1] is recorded as “less than 4.7”. Further, in data set [2], the Cmax was found to be 1750 nM and the time to peak (Tmax) is 3 h. For the same compound, the clearance in data set [2] (read-out: Clearance (Cl) (converted)) was 8.83 mL/min/kg. In data set [2] (read-out: Oral Bioavailability (%F)), the bioavailability is 30.1%. In data set [2] (read-out: Volume of distribution (Vd)), the Vd was 2.82 L/kg. The half-life in data set [2] (read-out: half life (t1/2) (converted)) was 3.71 h. Also, in the data set with VR1 receptor, the “% Inhibition @ 1 uM” value is listed as “+ + + + (compound exhibited 75% or greater inhibition of calcium ion influx induced by capsaicin stimulation)”. Besides, the “inhibition of CYP3A4 activity” value on CYP3A4 is reported as “did not significantly inhibit”. Moreover, the fraction unbound at 22 h, 10 µM in data set [3] was under 0.002.

Usually Cmax stands for the highest concentration seen after dosing. Usually Tmax stands for the time from dosing to the highest level. One may read the bioavailability as dose-corrected exposure relative to a reference, in per cent.
